The record followed here is US7183415B2, “Quinoline compound” (Takeda Pharmaceutical Company Limited, priority 2001, dated 2007).

System in the first series: not given
Experiment: not given
Conditions: not given
`Cc1c(NC(=O)c2ccc(-c3ccc(F)cc3)cc2)ccc2cc(CN3CCCC3)cnc12` [Example 19, 4′-fluoro-N-[8-methyl-3-(1-pyrrolidinylmethyl)-7-quinolinyl][1,1′-biphenyl]-4-carboxamide] came in with a melting point of 220 to 222 °C.

In turn, `Cc1cc2cc(CN3CCC(CCC(=O)N4CCCCC4)CC3)cnc2cc1NC(=O)c1ccc(-c2ccc(F)cc2)cc1` [Example 258, 4′-fluoro-N-[6-methyl-3-({4-[3-oxo-3-(1-piperidinyl)propyl]-1-piperidinyl}methyl)-7-quinolinyl][1,1′-biphenyl]-4-carboxamide] came in with a melting point of 189 to 191 °C. On the same count and under the same terms, as for `Cc1cc2cc(CN3CCC(CCCC(=O)N4CCCCC4)CC3)cnc2cc1NC(=O)c1ccc(-c2ccc(F)cc2)cc1` [Example 259, 4′-fluoro-N-[6-methyl-3-({4-[4-oxo-4-(1-piperidinyl)butyl]-1-piperidinyl}methyl)-7-quinolinyl][1,1′-biphenyl]-4-carboxamide], the figure is 179 °C; as for `CCN(CC)C(=O)CCCC1CCN(Cc2cnc3cc(NC(=O)c4ccc(-c5ccc(F)cc5)cc4)c(C)cc3c2)CC1` [Example 260, N-[3-({4-[4-(diethylamino)-4-oxobutyl]-1-piperidinyl}methyl)-6-methyl-7-quinolinyl]-4′-fluoro[1,1′-biphenyl]-4-carboxamide], 181 °C; as for `CCNC(=O)CCCC1CCN(Cc2cnc3cc(NC(=O)c4ccc(-c5ccc(F)cc5)cc4)c(C)cc3c2)CC1` [Example 261, N-[3-({4-[4-(ethylamino)-4-oxobutyl]-1-piperidinyl}methyl)-6-methyl-7-quinolinyl]-4′-fluoro[1,1′-biphenyl]-4-carboxamide], 240 °C. Same read-out and setting: to `Cc1cc2cc(CN3CCC(CCCC(=O)N(C)C)CC3)cnc2cc1NC(=O)c1ccc(-c2ccc(F)cc2)cc1` [Example 262, N-[3-({4-[4-(dimethylamino)-4-oxobutyl]-1-piperidinyl}methyl)-6-methyl-7-quinolinyl]-4′-fluoro[1,1′-biphenyl]-4-carboxamide] belongs 194 °C. Same read-out and setting: as for `Cc1cc2cc(CN3CCC(CCCC(N)=O)CC3)cnc2cc1NC(=O)c1ccc(-c2ccc(F)cc2)cc1` [Example 264, N-(3-{[4-(4-amino-4-oxobutyl)-1-piperidinyl]methyl}-6-methyl-7-quinolinyl)-4′-fluoro[1,1′-biphenyl]-4-carboxamide], the figure is 228 °C; as for `Cc1cc2cc(CN3CCC(CC(=O)N4CCCCC4)CC3)cnc2cc1NC(=O)c1ccc(-c2ccc(F)cc2)cc1` [Example 265, 4′-fluoro-N-[6-methyl-3-({4-[2-oxo-2-(1-piperidinyl)ethyl]-1-piperidinyl}methyl)-7-quinolinyl][1,1′-biphenyl]-4-carboxamide], 216 °C. Turning to `CCN(CC)C(=O)CC1CCN(Cc2cnc3cc(NC(=O)c4ccc(-c5ccc(F)cc5)cc4)c(C)cc3c2)CC1` [Example 266, N-[3-({4-[2-(diethylamino)-2-oxoethyl]-1-piperidinyl}methyl)-6-methyl-7-quinolinyl]-4′-fluoro[1,1′-biphenyl]-4-carboxamide], the melting point is 197 °C.

For `CCNC(=O)CC1CCN(Cc2cnc3cc(NC(=O)c4ccc(-c5ccc(F)cc5)cc4)c(C)cc3c2)CC1` [Example 267, N-[3-({4-[2-(ethylamino)-2-oxoethyl]-1-piperidinyl}methyl)-6-methyl-7-quinolinyl]-4′-fluoro[1,1′-biphenyl]-4-carboxamide], the melting point came out at 251 °C. On the same count and under the same terms, to `Cc1cc2cc(CN3CCC(CC(=O)N(C)C)CC3)cnc2cc1NC(=O)c1ccc(-c2ccc(F)cc2)cc1` [Example 268, N-[3-({4-[2-(dimethylamino)-2-oxoethyl]-1-piperidinyl}methyl)-6-methyl-7-quinolinyl]-4′-fluoro[1,1′-biphenyl]-4-carboxamide] belongs 219 °C. `CNC(=O)CC1CCN(Cc2cnc3cc(NC(=O)c4ccc(-c5ccc(F)cc5)cc4)c(C)cc3c2)CC1` [Example 269, 4′-fluoro-N-[6-methyl-3-({4-[2-(methylamino)-2-oxoethyl]-1-piperidinyl}methyl)-7-quinolinyl][1,1′-biphenyl]-4-carboxamide] returned a melting point of 243 °C. Compound `Cc1cc2cc(CN3CCC(CC(N)=O)CC3)cnc2cc1NC(=O)c1ccc(-c2ccc(F)cc2)cc1` [Example 270, N-(3-{[4-(2-amino-2-oxoethyl)-1-piperidinyl]methyl}-6-methyl-7-quinolinyl)-4′-fluoro[1,1′-biphenyl]-4-carboxamide] gave a melting point of 249 °C. Still for that read-out and setting: as for `Cc1cc2cc(CN3CCC(C(=O)N4CCCCC4)CC3)cnc2cc1NC(=O)c1ccc(-c2ccc(F)cc2)cc1` [Example 271, 4′-fluoro-N-(6-methyl-3-{[4-(1-piperidinylcarbonyl)-1-piperidinyl]methyl}-7-quinolinyl)[1,1′-biphenyl]-4-carboxamide], the figure is 250 °C. On the same count and under the same terms, as for `CCN(CC)C(=O)C1CCN(Cc2cnc3cc(NC(=O)c4ccc(-c5ccc(F)cc5)cc4)c(C)cc3c2)CC1` [Example 272, N,N-diethyl-1-[(7-{[(4′-fluoro-1,1′-biphenyl-4-yl)carbonyl]amino}-6-methyl-3-quinolinyl)methyl]piperidine-4-carboxamide], the figure is 203 °C.

`CCNC(=O)C1CCN(Cc2cnc3cc(NC(=O)c4ccc(-c5ccc(F)cc5)cc4)c(C)cc3c2)CC1` [Example 273, N-ethyl-1-[(7-{[(4′-fluoro-1,1′-biphenyl-4-yl)carbonyl]amino}-6-methyl-3-quinolinyl)methyl]piperidine-4-carboxamide] returned a melting point of 254 °C.

`Cc1cc2cc(CN3CCC(C(=O)N(C)C)CC3)cnc2cc1NC(=O)c1ccc(-c2ccc(F)cc2)cc1` [Example 274, 1-[(7-{[(4′-fluoro-1,1′-biphenyl-4-yl)carbonyl]amino}-6-methyl-3-quinolinyl)methyl]-N,N-dimethylpiperidine-4-carboxamide] showed a melting point of 229 °C. Still for that read-out and setting: as for `CNC(=O)C1CCN(Cc2cnc3cc(NC(=O)c4ccc(-c5ccc(F)cc5)cc4)c(C)cc3c2)CC1` [Example 275, 1-[(7-{[(4′-fluoro-1,1′-biphenyl-4-yl)carbonyl]amino}-6-methyl-3-quinolinyl)methyl]-N-methylpiperidine-4-carboxamide], the figure is 257 °C; as for `Cc1cc2cc(CN3CCC(C(N)=O)CC3)cnc2cc1NC(=O)c1ccc(-c2ccc(F)cc2)cc1` [Example 276, 1-[(7-{[(4′-fluoro-1,1′-biphenyl-4-yl)carbonyl]amino}-6-methyl-3-quinolinyl)methyl]piperidine-4-carboxamide], 265 °C. On the same count and under the same terms, to `Cc1ccc(-c2ccc(C(=O)Nc3ccc4cc(CN5CCCC5)cnc4c3)c(F)c2)cc1` [Example 277, 3-fluoro-4′-methyl-N-[3-(1-pyrrolidinylmethyl)-7-quinolinyl][1,1′-biphenyl]-4-carboxamide] belongs 173 °C; to `Cc1ccc(-c2ccc(C(=O)Nc3ccc4cc(CN5CCCC5)cnc4c3F)c(F)c2)cc1` [Example 278, 3-fluoro-N-[8-fluoro-3-(1-pyrrolidinylmethyl)-7-quinolinyl]-4′-methyl[1,1′-biphenyl]-4-carboxamide], 173 °C.

For the compound `O=C(Nc1ccc2cc(CN3CCCC3)cnc2c1F)c1ccc(-c2ccc(Cl)cc2)cc1F` [Example 279, 4′-chloro-3-fluoro-N-[8-fluoro-3-(1-pyrrolidinylmethyl)-7-quinolinyl][1,1′-biphenyl]-4-carboxamide], the melting point was 208 °C. `CN1CCc2nc3cc(NC(=O)c4ccc(-c5ccc(Cl)cc5)cc4)ccc3cc2C1` [Example 326, 4′-chloro-N-(2-methyl-1,2,3,4-tetrahydrobenzo[b][1,6]naphthyridin-7-yl)[1,1′-biphenyl]-4-carboxamide]: the melting point was > 220 °C (dec.). The same measure, in the same setting: to `CN1CCc2nc3cc(NC(=O)c4ccc(-c5ccc(Cl)cc5)cc4F)ccc3cc2C1` [Example 328, 4′-chloro-3-fluoro-N-(2-methyl-1,2,3,4-tetrahydrobenzo[b][1,6]naphthyridin-7-yl)[1,1′-biphenyl]-4-carboxamide] belongs > 220 °C (dec.); to `CCC(=O)Oc1ccc(C(=O)Nc2ccc3cc(CN4CCCC4)cnc3c2C)cc1` [Example 330, 4-({[8-methyl-3-(1-pyrrolidinylmethyl)-7-quinolinyl]amino}carbonyl)phenyl propionate], 146 to 147 °C; to `CCCC(=O)Oc1ccc(C(=O)Nc2ccc3cc(CN4CCCC4)cnc3c2C)cc1` [Example 331, 4-({[8-methyl-3-(1-pyrrolidinylmethyl)-7-quinolinyl]amino}carbonyl)phenyl butyrate], 156 to 158 °C.

A further series relates to SD (Sprague Dawley) rats. Put plainly: Evaluation of antidepressive action by forced swim test. In kind it is in vivo, rat. The conditions noted are these: 3 mg/kg body weight, oral, 30 minutes before test, five minutes measured, n=10; control group 30.86±8.71. How it is done: By performing a forced swim test using SD (Sprague Dawley) rats (seven-week-old, male, body weight 233.3–266.9 g, purchased from Japan Clea), the antidepressive action of the compound of the present invention was evaluated.
First, a suspension of the compound of Example 19 in 0.5% methyl cellulose was orally administered to SD rats (n=10) (compound dose: 3 mg/kg body weight). Thirty minutes later, the rats were placed in a pipe (diameter 21 cm, height 50 cm) made of Plexiglass (trade name, made by Rohm & Haas, U.S.A.) containing tap water (water temperature 25±2° C., 30 cm deep). Immobility time of the rats for five minutes thereafter was measured using a digital video camera.
In addition, 0.5% methyl cellulose suspension without the compound was orally administered to SD rats (n=10), and the rats were subjected the forced swim test in the same manner as above and taken as a control group.
On to `Cc1c(NC(=O)c2ccc(-c3ccc(F)cc3)cc2)ccc2cc(CN3CCCC3)cnc12` [Example 19, 4′-fluoro-N-[8-methyl-3-(1-pyrrolidinylmethyl)-7-quinolinyl][1,1′-biphenyl]-4-carboxamide], for which the “immobility time (seconds, mean±standard deviation)” value is 15.93 ± 5.62 s.

One may read the melting point as the temperature, or range, at which the solid turns liquid.
